According to patent publication US20060276464A1, “Diarylsulfone sulfonamides and use thereof” (Wyeth, priority 2005, published 2006):
Structures can show the parent of a compound that is named as a salt. Where two headings read alike, the source gives them in different places.

Columns and labels:
SFRP-1 [1] = target: T1, SFRP-1 (Homo sapiens, UniProt Q8N474); assay: Fluorescence polarization binding assay (competitive displacement of a probe compound from SFRP-1); details: fluorescence anisotropy, 45 nM SFRP-1, 20 nM probe;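 note: test compound competes with a fluorescent probe held by SFRP-1, seen as a drop in probe anisotropy after incubation in darkness, with anisotropy as function of rising compound dose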
T1 sequence (Q8N474 32-314): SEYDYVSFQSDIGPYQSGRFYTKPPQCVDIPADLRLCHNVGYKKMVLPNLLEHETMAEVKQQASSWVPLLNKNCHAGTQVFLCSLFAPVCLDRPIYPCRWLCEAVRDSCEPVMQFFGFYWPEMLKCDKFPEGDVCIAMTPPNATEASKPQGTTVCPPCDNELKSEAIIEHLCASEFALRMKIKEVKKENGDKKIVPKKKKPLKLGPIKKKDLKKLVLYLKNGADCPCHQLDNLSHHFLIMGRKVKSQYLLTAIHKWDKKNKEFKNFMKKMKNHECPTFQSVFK

SFRP-1 [2] = target: T1, SFRP-1; assay: Cell-based assay for in vitro measurement of SFRP-1/SARP2 antagonist activity (U2OS cells co-transfected with 16x TCF-tk-Luciferase reporter, Wnt and hSFRP-1); details: for fold induction at 10 µM / fold induction at 15 µM: U2OS; for fold induction at 10 µM: read-out: Fold Induction with SFRP-1, U2OS cells, single dose 10 μM, luciferase reporter, fold induction over SFRP-1 control;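 for all read-outs here: U2OS cells co-transfected with a TCF-tk luciferase reporter, a Wnt vector, hSFRP-1 or empty vector and CMV-βgal, luciferase luminescence read in cell lysates alongside βgal activity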
[3] = read-out: Fold Induction with SFRP-1, Conc 15 μM, with SFRP-1, fold induction over SFRP-1 control, single dose
[4] = read-out: Fold Induction without SFRP-1, Conc 15 μM, without SFRP-1, single dose
[5] = read-out: Fold Induction with SFRP-1, Conc 15 μM, single dose, luciferase reporter, fold induction over SFRP-1 control, cells with SFRP-1
[6] = read-out: Fold Induction without SFRP-1, Conc 15 μM, single dose, luciferase reporter, cells without SFRP-1 (specificity control)

SMILES | IC50 (SFRP-1 [1]) [µM] | EC50 (SFRP-1 [2]) [µM] | fold induction at 10 µM (SFRP-1 [2]) | further results
Cc1nn(C)c(Cl)c1S(=O)(=O)c1ccc(C(C)C)c(S(=O)(=O)NC2CCOCC2)c1 [Example 569, 5-[(5-chloro-1,3-dimethyl-1H-pyrazol-4-yl)sulfonyl]-2-isopropyl-N-(tetrahydro-2H-pyran-4-yl)benzenesulfonamide] | 1.5 | – | – | fold induction at 15 µM (SFRP-1 [2]; read-out: Fold Induction with SFRP-1): 3.8; fold induction at 15 µM (SFRP-1 [2]; read-out: Fold Induction without SFRP-1): 1.1
Cc1ccc(S(=O)(=O)c2ccccc2)cc1S(=O)(=O)NC1CCOCC1 [Example 298, 2-methyl-5-(phenylsulfonyl)-N-tetrahydro-2H-pyran-4-ylbenzenesulfonamide] | 0.8 | – | – | fold induction at 15 µM (SFRP-1 [2]; [3]): 3.2; fold induction at 15 µM (SFRP-1 [2]; [4]): 1.3
O=C(O)CN1CCC(CCNS(=O)(=O)c2cc(S(=O)(=O)c3ccccc3)ccc2C(F)(F)F)CC1 [Example 944, {4-[2-({[5-(phenylsulfonyl)-2-(trifluoromethyl)phenyl]sulfonyl}amino)ethyl]piperidin-1-yl}acetic acid] | 1.7 | 1.44 | 2.9 | –
CC(C)c1ccc(S(=O)(=O)c2ccccc2)cc1S(=O)(=O)NCCc1cccnc1 [Example 672, 2-isopropyl-5-(phenylsulfonyl)-N-(2-pyridin-3-ylethyl)benzenesulfonamide] | 0.3 | 3.12 | 4.2 | –
Cc1nn(C)c(Cl)c1S(=O)(=O)c1ccc(C(C)C)c(S(=O)(=O)NCCc2ccccn2)c1 [Example 512, 5-[(5-chloro-1,3-dimethyl-1H-pyrazol-4-yl)sulfonyl]-2-isopropyl-N-(2-pyridin-2-ylethyl)benzenesulfonamide] | 1 | – | – | fold induction at 15 µM (SFRP-1 [2]; [5]): 3.1; fold induction at 15 µM (SFRP-1 [2]; [6]): 1.1
CC(C)c1ccc(S(=O)(=O)c2ccc(F)cc2)cc1S(=O)(=O)NC1CCNCC1 [Example 520, 5-[(4-fluorophenyl)sulfonyl]-2-isopropyl-N-piperidin-4-ylbenzenesulfonamide] | 2.4 | – | – | fold induction at 15 µM (SFRP-1 [2]; [5]): 3.3; fold induction at 15 µM (SFRP-1 [2]; [6]): 1.1
CC(C)c1ccc(S(=O)(=O)c2ccc(F)cc2)cc1S(=O)(=O)NC1CCN(C(=S)Nc2ccccc2F)CC1 [Example 691, N-(2-fluorophenyl)-4-[({5-[(4-fluorophenyl)sulfonyl]-2-isopropylphenyl}sulfonyl)amino]piperidine-1-carbothioamide] | 1 | 8.6 | 2.8 | –
CN(CCNS(=O)(=O)c1cc(S(=O)(=O)c2ccccc2)ccc1C(F)(F)F)C(=O)N[C@H]1CCCN(C(=O)OC(C)(C)C)C1 [Example 1010, tert-butyl (3S)-3-[({methyl[2-({[5-(phenylsulfonyl)-2-(trifluoromethyl)phenyl]sulfonyl}amino)ethyl]amino}carbonyl)amino]piperidine-1-carboxylate] | 0.6 | 2 | – | –
CC(C)c1ccc(S(=O)(=O)c2ccc(F)cc2)cc1S(=O)(=O)NCC1CCOCC1 [Example 445, 5-[(4-fluorophenyl)sulfonyl]-2-isopropyl-N-(tetrahydro-2H-pyran-4-ylmethyl)benzenesulfonamide] | 1.1 | – | – | fold induction at 15 µM (SFRP-1 [2]; [3]): 2.9; fold induction at 15 µM (SFRP-1 [2]; [4]): 1.2
CN(CCNS(=O)(=O)c1cc(S(=O)(=O)c2ccccc2)ccc1C(F)(F)F)CC(=O)OC(C)(C)C [Example 962, tert-butyl N-methyl-N-[2-({[5-(phenylsulfonyl)-2-(trifluoromethyl)phenyl]sulfonyl}amino)ethyl]glycinate] | 3 | 2.86 | 2.7 | –
CC(C)(C)OC(=O)N1CCC(NC(=O)NCCNS(=O)(=O)c2cc(S(=O)(=O)c3ccccc3)ccc2C(F)(F)F)CC1 [Example 1046, tert-butyl 4-[({[2-({[5-(phenylsulfonyl)-2-(trifluoromethyl)phenyl]sulfonyl}amino)ethyl]amino}carbonyl)amino]piperidine-1-carboxylate] | 0.8 | 3.44 | – | –
CC(C)c1ccc(S(=O)(=O)c2ccc(F)cc2)cc1S(=O)(=O)NC1CCCC1 [Example 523, N-cyclopentyl-5-[(4-fluorophenyl)sulfonyl]-2-isopropylbenzenesulfonamide] | 3 | – | – | fold induction at 15 µM (SFRP-1 [2]; [5]): 2.1; fold induction at 15 µM (SFRP-1 [2]; [6]): 1
O=S(=O)(NCC(O)c1ccccc1)c1cc(S(=O)(=O)c2ccccc2)ccc1C(F)(F)F (stereo not drawn) [Example 682, N-(2-hydroxy-2-phenylethyl)-5-(phenylsulfonyl)-2-(trifluoromethyl)benzenesulfonamide] | 0.25 | 0.765 | 1.2 | –

More lines, in order of falling IC50 (SFRP-1 [1]), values ahead:

IC50 (SFRP-1 [1]) [µM] | EC50 (SFRP-1 [2]) [µM] | fold induction at 10 µM (SFRP-1 [2]) | SMILES | further results
2.1 | – | 2.2 | NCCNS(=O)(=O)c1cc(S(=O)(=O)c2ccccc2)ccc1C(F)(F)F [Example 762, N-(2-Aminoethyl)-5-(phenylsulfonyl)-2-(trifluoromethyl)benzenesulfonamide hydrochloride] | –
1.1 | – | 2.9 | COc1cccc(S(=O)(=O)c2ccc(C(F)(F)F)c(S(=O)(=O)NCCO)c2)c1 [Example 785, N-(2-hydroxyethyl)-5-[(3-methoxyphenyl)sulfonyl]-2-(trifluoromethyl)benzenesulfonamide] | –
1 | – | – | CC(C)c1ccc(S(=O)(=O)c2ccc(F)cc2)cc1S(=O)(=O)NC1CCOCC1 [Example 321, 5-[(4-fluorophenyl)sulfonyl]-2-isopropyl-N-tetrahydro-2H-pyran-4-ylbenzenesulfonamide] | fold induction at 15 µM (SFRP-1 [2]; [3]): 3.3; fold induction at 15 µM (SFRP-1 [2]; [4]): 1.2
0.6 | 1.87 | 3.3 | COc1ccc(NC(=O)N(C)CCNS(=O)(=O)c2cc(S(=O)(=O)c3ccccc3)ccc2C(F)(F)F)cc1 [Example 830, N-{2-[{[(4-methoxyphenyl)amino]carbonyl}(methyl)amino]ethyl}-5-(phenylsulfonyl)-2-(trifluoromethyl)benzenesulfonamide] | –
0.6 | – | – | CNc1ccc(S(=O)(=O)c2ccc(C(C)C)c(S(=O)(=O)NCCc3ccccn3)c2)c(C)c1 [Example 599, 2-isopropyl-5-{[2-methyl-4-(methylamino)phenyl]sulfonyl}-N-(2-pyridin-2-ylethyl)benzenesulfonamide] | fold induction at 15 µM (SFRP-1 [2]; [5]): 4.2; fold induction at 15 µM (SFRP-1 [2]; [6]): 1.4
0.4 | 1.13 | 3.4 | COCCCNS(=O)(=O)c1cc(S(=O)(=O)c2ccccc2)ccc1C(F)(F)F [Example 768, N-(3-methoxypropyl)-5-(phenylsulfonyl)-2-(trifluoromethyl)benzenesulfonamide] | –
0.3 | 2.67 | 3.2 | CN(CCNS(=O)(=O)c1cc(S(=O)(=O)c2ccccc2)ccc1C(F)(F)F)C(=O)C1CCCCC1 [Example 846, N-methyl-N-[2-({[5-(phenylsulfonyl)-2-(trifluoromethyl)phenyl]sulfonyl}amino)ethyl]cyclohexanecarboxamide] | –
0.3 | 9.4 | 3.3 | O=C(c1ccc(C(F)(F)F)c(F)c1)N1CCC(NS(=O)(=O)c2cc(S(=O)(=O)c3ccccc3)ccc2C(F)(F)F)CC1 [Example 711, N-{1-[3-fluoro-4-(trifluoromethyl)benzoyl]piperidin-4-yl}-5-(phenylsulfonyl)-2-(trifluoromethyl)benzenesulfonamide] | –
0.3 | 2.14 | 2.9 | CCCCOC(=O)N(C)CCNS(=O)(=O)c1cc(S(=O)(=O)c2ccccc2)ccc1C(F)(F)F [Example 865, butyl methyl[2-({[5-(phenylsulfonyl)-2-(trifluoromethyl)phenyl]sulfonyl}amino)ethyl]carbamate] | –
0.18 | 0.503 | 3.7 | O=C(c1cc(F)cc(F)c1)N1CCC(NS(=O)(=O)c2cc(S(=O)(=O)c3ccccc3)ccc2C(F)(F)F)CC1 [Example 706, N-[1-(3,5-difluorobenzoyl)piperidin-4-yl]-5-(phenylsulfonyl)-2-(trifluoromethyl)benzenesulfonamide] | –
0.13 | 0.577 | – | CN(CCNS(=O)(=O)c1cc(S(=O)(=O)c2ccccc2)ccc1C(F)(F)F)C(=O)N[C@@H]1CCN(C(=O)OC(C)(C)C)C1 [Example 990, tert-butyl (3R)-3-[({methyl[2-({[5-(phenylsulfonyl)-2-(trifluoromethyl)phenyl]sulfonyl}amino)ethyl]amino}carbonyl)amino]pyrrolidine-1-carboxylate] | –
0.1 | 0.36 | 4.2 | Cc1cc(C(=O)N2CCC(NS(=O)(=O)c3cc(S(=O)(=O)c4ccccc4)ccc3C(F)(F)F)CC2)cc(Cl)n1 [Example 856, N-[1-(2-chloro-6-methylisonicotinoyl)piperidin-4-yl]-5-(phenylsulfonyl)-2-(trifluoromethyl)benzenesulfonamide] | –
0.03 | 0.114 | – | CS(=O)(=O)N1CCC[C@H]1C(=O)N1CCC(NS(=O)(=O)c2cc(S(=O)(=O)c3ccccc3)ccc2C(F)(F)F)CC1 [Example 1075, N-{1-[1-(methylsulfonyl)-L-prolyl]piperidin-4-yl}-5-(phenylsulfonyl)-2-(trifluoromethyl)benzenesulfonamide] | –
